This is an account of results in patent US10501801B2, “Identification of tumor-protective epitopes for the treatment of cancers” (THE UNIVERSITY OF CONNECTICUT, priority 2012, dated 2019).

Ends that are not written are not given here. Where only a bound is given, the exact number is not on record here.

In the first experiment the target is H-2 K^d (Mus musculus, UniProt P01902). In words: Binding of peptides to purified H-2 K^d (inhibition of radiolabeled standard peptide).
Chain of H-2 K^d (P01902 22-368): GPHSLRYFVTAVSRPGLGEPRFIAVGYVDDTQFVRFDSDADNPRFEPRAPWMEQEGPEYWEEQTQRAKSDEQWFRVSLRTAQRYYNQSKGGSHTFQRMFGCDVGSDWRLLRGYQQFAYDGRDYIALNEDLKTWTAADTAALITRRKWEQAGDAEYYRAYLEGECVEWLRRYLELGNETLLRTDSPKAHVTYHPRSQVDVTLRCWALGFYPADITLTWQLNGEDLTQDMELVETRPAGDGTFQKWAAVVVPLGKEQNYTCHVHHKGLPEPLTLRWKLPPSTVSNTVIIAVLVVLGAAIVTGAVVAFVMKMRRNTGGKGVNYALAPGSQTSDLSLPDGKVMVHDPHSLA
Chain of H-2 K^d (P61769 21-119 partner): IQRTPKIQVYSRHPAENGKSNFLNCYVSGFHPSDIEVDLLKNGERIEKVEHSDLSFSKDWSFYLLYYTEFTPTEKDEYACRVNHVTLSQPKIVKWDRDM
Conditions: not given
Here is the method:
Binding assays. Binding of peptides to H-2 K^d was determined using quantitative assays based on the inhibition of binding of a radiolabeled standard peptide to purified MHC molecules, essentially as known in the art. […] Under the conditions utilized, where [label]<[MHC] and IC50≥[MHC], the measured IC50 values are reasonable approximations of the KD values.
Regarding `CC[C@H](C)[C@H](N)C(=O)N[C@@H](Cc1ccc(O)cc1)C(=O)NCC(=O)N[C@H](C(=O)N[C@H](C(=O)N[C@@H](C)C(=O)N[C@@H](CCCNC(=N)N)C(=O)N[C@@H](CC(N)=O)C(=O)N[C@@H](CCCNC(=N)N)C(=O)N[C@@H](C)C(=O)N[C@@H](CC(C)C)C(=O)O)C(C)C)C(C)C` [Dis312.1, I(y/D)GVVARNRAL], the IC50 was > 70 µM.

On to LYHTRPTAL [Kdm4b, L(y/D)HTRPTAL], for which the IC50 is > 70 µM. With GFHGCIHEVL [Slit3], the IC50 is > 70 µM. Still for that read-out and setting: to PALKSEEKTL [Stau1.3] belongs > 70 µM. The same measure, in the same setting: to NYLLSLVAVML [Serinc1] belongs 20.9 µM. Take PYKRLKAEPA [Prrc2a]: the IC50 worked out at 0.261 µM.

For the molecule GYSVLHLAI [Nfkb1, G(y/D)SVLHLAI], the IC50 turned out to be 1.61 µM.

In the case of AYAKQFAA [Ube4a.2, A(y/D)AKQFAA], the IC50 was > 70 µM. For HYLQGSNA [Fiz1, H(y/D)LQGSNA], the IC50 is > 70 µM. As for SYMLQALCI [Tnpo3, (sy/LD)MLQALCI], the IC50 turned out to be 0.146 µM. Still for that read-out and setting: to HYLSSILRL [Pacs2, HYLS(s/A)ILRL] belongs 1.27 µM. The same measure, in the same setting: the value for AYILAALTKLQ [Trim26.2] was > 70 µM; that for SYCEPALNQA [Ncdn] was > 70 µM; that for VYLTCRLEKPA [Gapdh] was > 70 µM. Take AYILAALTKL [Trim26.1]: the IC50 is 0.0011 µM. On the same count and under the same terms, the value for LYVSKLNGP [Galnt1, L(y/D)VSKLNGP] was > 70 µM.

Staying with this experiment, now noted: mutated peptide; Table 5; read-out: Measured IC50 for K^d Mut/WT: Mut.
As for PYLTQYAI [Dhx8.2, P(y/D)LTQYAI], the IC50 was > 70 µM. Turning to VFPGLMEL [Atxn10.2, VFPGLME(l/R)], the IC50 is > 70 µM. As for AYILAALTKLQ [Zfp236.2, E(y/D)LDLQTQG], the IC50 worked out at 10 µM.

For DYVPMEQPR [Alkbh6.2, D(y/D)VPMEQPR], the IC50 is > 70 µM.

Consider AYRLEGDRS [Dcaf6, A(y/D)RLEGDRS], for which the IC50 was > 70 µM. Same read-out and setting: the value for “SWSSRRSLLG(l/R) (SWSSRRSLLGL; not fully specified; listed as Mus musculus) [9430016H08Rik]” was > 70 µM; that for KLQRQYRSPRL [Mast2] was 10.1 µM; that for “D(y/D)VPMEQPRP (DYVPMEQPRP; not fully specified; listed as Mus musculus) [Alkbh6.3]” was > 70 µM. “ELQGLLEDE(l/R) (ELQGLLEDEL; not fully specified; printed as ELQGLLEDE(l/R); listed as Mus musculus) [Ccdc136]”: the IC50 is > 70 µM.

Consider “QVFPGLME(l/R) (QVFPGLMEL; not fully specified; printed as QVFPGLME(l/R); listed as Mus musculus) [Atxn10.1]”, for which the IC50 was > 70 µM.

The same experiment, now with this note: wild type counterpart peptide; Table 4; read-out: Measured IC50 for K^d Mut/WT: WT.
“YYVPLLKRVP(l/S) (YYVPLLKRVPL; not fully specified; printed as YYVPLLKRVP(l/S); listed as Mus musculus) [Alms1.2]”: the IC50 was 1.49 µM.

Regarding “AYCETCWE(l/W) (AYCETCWEL; not fully specified; printed as AYCETCWE(l/W); cysteine pairing not given here; listed as Mus musculus) [Apc]”, the IC50 amounted to 0.06 µM. Still for that read-out and setting: to CYAKVKEQL [Ssx2ip, CYAK(v/L)KEQL] belongs 0.0032 µM; to HYINMILPI [Ufsp2, HYINM(i/S)LPI], < 0.0001 µM.

The same experiment, now with this note: wild type counterpart peptide; Table 5; read-out: Measured IC50 for K^d Mut/WT: WT.
Turning to PYLTQYAII [Dhx8.3, P(y/D)LTQYAII], the IC50 was determined as 1.42 µM. Consider PYLTQYAI [Dhx8.2, P(y/D)LTQYAI], for which the IC50 was > 70 µM. Consider ALKSEEKTL [Stau1.4], for which the IC50 was > 70 µM.

As to LYEAGVTDE [Tpst2.2, L(y/D)EAGVTDE], the IC50 was > 70 µM. Still for that read-out and setting: to AYILAALTKLQ [Zfp236.2, E(y/D)LDLQTQG] belongs > 70 µM; to KPALKSEEKTL [Stau1.2], > 70 µM; to DYVPMEQPR [Alkbh6.2, D(y/D)VPMEQPR], 51.2 µM. Still for that read-out and setting: the value for “P(y/D)LTQYAIIML (PYLTQYAIIML; not fully specified; listed as Mus musculus) [Dhx8.1]” was 1.65 µM. Same read-out and setting: to AYRLEGDRS [Dcaf6, A(y/D)RLEGDRS] belongs > 70 µM; to AYAKQFAAI [Ube4a.1, A(y/D)AKQFAAI], > 70 µM; to LYYERIHKKML [Ugdh], 0.012 µM. With DYVPMEQP [Alkbh6.1, D(y/D)VPMEQP], the IC50 is > 70 µM. The same measure, in the same setting: the value for “SWSSRRSLLG(l/R) (SWSSRRSLLGL; not fully specified; listed as Mus musculus) [9430016H08Rik]” was > 70 µM. Take LKSEEKTL [Stau1.1, LKSEEKT(l/P)]: the IC50 is > 70 µM. LYDVDAAF [Cpsf2, L(y/D)DVDAAF]: the IC50 is > 70 µM. As for SEDKIKAIL [Rangap1], the IC50 turned out to be 5.11 µM. “D(y/D)VPMEQPRPP (DYVPMEQPRPP; not fully specified; listed as Mus musculus) [Alkbh6.4]”: the IC50 was determined as 2.96 µM.

Take EYLDLQTQ [Zfp236.1, E(y/D)LDLQTQ]: the IC50 was > 70 µM. “ELQGLLEDE(l/R) (ELQGLLEDEL; not fully specified; printed as ELQGLLEDE(l/R); listed as Mus musculus) [Ccdc136]”: the IC50 turned out to be 4.54 µM. The same measure, in the same setting: to “P(y/D)LTQYAIIM (PYLTQYAIIM; not fully specified; listed as Mus musculus) [Dhx8.4]” belongs 6.26 µM; to TTTPGGRPPYL [Sipa113], > 70 µM. As to “QVFPGLME(l/R) (QVFPGLMEL; not fully specified; printed as QVFPGLME(l/R); listed as Mus musculus) [Atxn10.1]”, the IC50 was 7.05 µM.
